Laboratory results: ChEMBL document CHEMBL3046783, “Synthesis of pyrimidine and condensed pyrimidine derivatives and their evaluation for anti-inflammatory activity” (2012)

test system: Rattus norvegicus; assay: Anti-inflammatory activity in Rattus norvegicus albino (rat) assessed as inhibition of carrageenan-induced paw edema at 50 mg/kg, po administered 30 min before carrageenan challenge measured after 1 to 3 hr by plethysmometer analysis; format: functional

SMILES	inhibition in vivo at 50 mg/kg
CC1=CC(C)(C)NC(=S)N1Cc1ccncc1	25%
CC1=CC(C)(C)NC(=S)N1CC1CCCO1 (stereo not given)	18%
CC1=CC(C)(C)NC(=S)N1CCc1c[nH]c2ccccc12	30%
CC1=CC(C)(C)NC(=S)N1c1cc(C#N)ccc1N	32%
CC1=CC(C)(C)NC(=S)N1c1cc(Br)ccc1N	31%
CC1=CC(C)(C)NC(=S)N1c1cc(C)ccc1O	27%
CC1C=CN(CCc2c[nH]c3ccccc23)C(=S)N1 (stereo not given)	25%
CC1(C)CC2(C)Nc3ccc(C#N)cc3N2C(=S)N1 (stereo not given)	39%
CC1(C)CC2(C)Nc3ccc(Br)cc3N2C(=S)N1 (stereo not given)	24%
CC1CC2Nc3ccc(Br)cc3N2C(=S)N1 (stereo not given)	27%
Cc1cccc2c1N1C(=S)NC(C)CC1N2 (stereo not given)	0%
CC1(C)CC(C)(O)N(Cc2ccncc2)C(=S)N1 (stereo not given)	27%
CC1(C)CC(C)(O)N(CCN2CCCC2)C(=S)N1 (stereo not given)	8%
CC1(C)CC(C)(O)N(CCN2CCOCC2)C(=S)N1 (stereo not given)	35%
CC1CC(O)N(Cc2ccncc2)C(=S)N1 (stereo not given)	30%
CC1CC(O)N(CCN2CCCC2)C(=S)N1 (stereo not given)	30%
CC1CC(O)N(CCN2CCOCC2)C(=S)N1 (stereo not given)	38%
CC1CC(O)N(CC2CCCO2)C(=S)N1 (stereo not given)	18%
CC1CC(O)N(CCN2CCCCC2)C(=S)N1 (stereo not given)	29%
CC(C)Cc1ccc(C(C)C(=O)O)cc1 (stereo not given) [IBUPROFEN]	39%
